Our source for the IC50 values is patent US20190290769A1, “Hydrogel Compositions” (The Trustees of the University of Pennsylvania, priority 2018, published 2019).

SMILES strings stand for the structures. ≈ marks a conversion by molar mass, not a printed value.

This test deals with T3565 cultured glioma stem cell. Put plainly: MTS assay of valproic acid on glioma stem cell viability. Conditions: T3565 cells, varying concentrations. The test is classed as cell-based. An excerpt:
In vitro testing of valproic acid on glioma stem cell and non-stem cells.

As a reminder, the IC50 is the concentration that inhibits the measured activity by half. The low end stands for greater potency, the high end for weaker potency.

In turn, `CCCC(CCC)C(=O)O` [valproic acid] showed an IC50 of 600 µg/mL (≈ 4.16 mM).
